Test results taken from US8242123B2, “Insecticidal methods using 4-amino-5-chloro-thieno[2,3-d]-pyrimidine compounds” (Merial Limited, priority 2006, dated 2012).

Key:
Assay type in all cases: in vivo
[1] = system: Silverleaf Whitefly (Bemisia argentifolii); assay: Silverleaf whitefly, cotton cotyledon dip test; settings: for mortality at 100 ppm: Bemisia argentifolii, 72 h, 3 days after treatment, adults on cotton cotyledons, read-out: mortality compared to untreated controls (silverleaf whitefly); for biological activity (0% no activity to 100% total control), Bemesia argentifolia: 300 ppm, comparative test
Procedure: (§1) In the following tests, if not precised otherwise, the formulated solutions of some of the compound examples were diluted to an active ingredient concentration of 300 ppm, and the diluted solutions were applied in the below mentioned tests.
(§2) The active compounds were formulated in 50:50 acetone:water and 100 ppm Kinetic™ surfactant.
Selected cotton plants were grown to the cotyledon state (one plant per pot). The cotyledons were dipped into the test solution to provide complete coverage of the foliage and placed in a well-vented area to dry. Each pot with treated seedling was placed in a plastic cup and 10 to 12 whitefly adults (approximately 3-5 day old) were introduced. The insects were colleted using an aspirator and an 0.6 cm, non-toxic TygonO tubing (R-3603) connected to a barrier pipette tip. The tip, containing the collected insects, was then gently inserted into the soil containing the treated plant, allowing insects to crawl out of the tip to reach the foliage for feeding. The cups were covered with a reusable screened lid (150 micron mesh polyester screen PeCap from Tetko Inc). Test plants were maintained in the holding room at about 25° C. and 20-40% relative humidity for 3 days avoiding direct exposure to the fluorescent light (24 hour photoperiod) to prevent trapping of heat inside the cup. Mortality was assessed 3 days after treatment of the plants.
(§3) The biological activity in tables B.1 and B.2 was evaluated on scale range from 0% as showing no biological activity to 100% as having total control. The comparative biological tests were conducted as described above.

[2] = system: Bean Aphid (aphis fabae); assay: Bean aphid, nasturtium plant dip test; settings: 72 h, after 3 days, nasturtium plants dipped
Procedure: as §1, §2
Nasturtium plants grown in Metro mix in the 1st leaf-pair stage (variety ‘Mixed Jewle’) were infested with approximately 2-30 laboratory-reared aphids by placing infested cut plants on top of the test plants. The cut plants were removed after 24 hr. Each plant was dipped into the test solution to provide complete coverage of the foliage, stem, protruding seed surface and surrounding cube surface and allowed to dry in the fume hood. The treated plants were kept at about 25° C. with continuous fluorescent light. Aphid mortality was determined after 3 days.

[3] = system: Colorado Potato Beetle (Leptinotarsa decemlineata); assay: Colorado potato beetle, potato leaf dip test; settings: foliar, 120 h, 5 days after treatment, larvae on dipped potato leaves, read-out: mortality compared to untreated controls (Colorado potato beetle)
Procedure: as §1
Potato plants were utilized for bioassays. Excised plant leaves were dipped into 1:1 acetone/water dilutions of the active compounds. After the leaves had dried, they were individually placed onto water-moistened filter paper on the bottoms of Petri dishes.
Each dish was infested with 5-7 larvae and covered with a lid. Each treatment dilution was replicated 4 times. Test dishes were held at approximately 27° C. and 60% humidity. Numbers of live and morbid larvae were assessed in each dish at 5 days after treatment application, and mortality percentage was calculated.

[4] = system: Rice Plant Hopper (Nilaparvata lugens); assay: Rice plant hopper, sprayed rice seedlings; settings: for mortality at 100 ppm: Nilaparvata lugens, after 72 hours, rice seedlings sprayed, 10 adults; for biological activity (0% no activity to 100% total control), Nilaparvata lugens: 300 ppm, comparative test
Procedure: as §1
(§4) Rice seedlings were cleaned and washed 24 hours before spraying. The active compounds were formulated in 50:50 acetone:water and 0.1% vol/vol surfactant (EL 620) was added. Potted rice seedlings were sprayed with 5 ml test solution, air dried, placed in cages and inoculated with 10 adults. Treated rice plants were kept at 28-29° C. and relative humidity of 50-60%. Percent mortality was recorded after 72 hours.
as §3

[5] = system: Cowpea Aphid (aphis craccivora); assay: Cowpea aphid, sprayed potted cowpea plants; settings: population reduction recorded after 24, 72 and 120 hours
Procedure: as §1
The active compounds were formulated in 50:50 acetone:water. Potted cowpea plants colonized with 100-150 aphids of various stages were sprayed after the pest population has been recorded. Population reduction was recorded after 24, 72, and 120 hours.

[6] = system: Rice Green Leafhopper (Nephotettix virescens); assay: Rice green leafhopper, sprayed rice seedlings; settings: after 72 hours, 10 adults
Procedure: as §1
as §4, with “acetone:water,” for “acetone:water”

[7] = system: Southern Armyworm (spodoptera eridania), 2nd-3rd Instar Larvae; assay: Southern armyworm, lima bean foliage dip test; settings: for biological activity (0% no activity to 100% total control), Spodoptera eridania: 300 ppm, comparative test
Procedure: as §1
The active compounds were formulated as a 10.000 ppm solution in a mixture of 35% acetone and water, which was diluted with water, if needed.
Sieva lima bean foliage, expanded to the first true leaves, were dipped and agitated in the test solution for 3 seconds and then allowed to dry in a fume hood. The treated plant was then placed in 25-cm plastic perforated zip enclosure bags, ten 2nd-instar larvae were added, and the bags sealed. After 4 days, observations were made of mortality, plant feeding, and of any interference with larval growth.
as §3

[8] = system: Cotton Aphid (aphis gossypii), Mixed Life Stages; assay: Cotton aphid, mixed life stages, infested cotyledon dip test; settings: 300 ppm; comparative test
Procedure: as §1
The active compounds were formulated in 50:50 acteone/water and 100 ppm Kinetic™ surfactant
Cotton plants at the cotyledon stage were infested prior to treatment by placing a heavily infested leaf from the main aphid colony on top of each cotyledon. The aphids were allowed to transfer overnight and the host leaf was removed. The infested cotyledons were then dipped and agitated in the test solution for 3 seconds and allowed to dry in a fume hood. Test plants were maintained under fluorescent lighting in a 24-hr photoperiod at 25° C. and 20-40% relative humidity. Aphid mortality on the treated plants, relative to mortality on untreated check plants, was determined after 5 days.
as §3

[9] = system: Green Peach Aphid (Myzus persicae), Mixed Life Stages; assay: Green peach aphid, mixed life stages, bell pepper leaf dip test; settings: 300 ppm; comparative test
Procedure: as §1
Bell pepper plants at the first true-leaf stage were infested prior to treatment by placing heavily infested leaves from the main aphid colony on top of the treatment plants. The aphids were allowed to transfer overnight to accomplish an infestation of 30-40 aphids per plant and the host leaves were removed. The infested leaves of the test plants were then dipped and agitated in the test solution for 3 seconds and allowed to dry in a fume hood. Test plants were maintained under fluorescent lighting in a 24-hr photoperiod at 25° C. and 20-40% relative humidity. Aphid mortality on the treated plants, relative to mortality on untreated check plants, was determined after 5 days.
as §3

| Structure (SMILES) | mortality at 100 ppm [1] [%] | mortality at 100 ppm [2] [%] | mortality at 100 ppm [3] [%] | mortality at 100 ppm [4] [%] | mortality at 100 ppm [5] [%] | mortality at 100 ppm [6] [%] | mortality at 100 ppm ([7]; Spodoptera eridania, foliar, 96 h, 100 ppm, after 4 days, lima bean foliage dipped, read-out: mortality in comparison with untreated controls (southern armyworm)) [%] | biological activity (0% no activity to 100% total control), Bemesia argentifolia [1] [%] | biological activity (0% no activity to 100% total control), Spodoptera eridania [7] [%] | biological activity (0% no activity to 100% total control), Nilaparvata lugens [4] [%] | biological activity (0% no activity to 100% total control), Aphis gossypii [8] [%] | biological activity (0% no activity to 100% total control), Myzus persicae [9] [%] |
| --- | --- | --- | --- | --- | --- | --- | --- | --- | --- | --- | --- | --- |
| CC(Nc1ncnc2scc(Cl)c12)c1ccc(OC(F)(F)F)cc1 (centres unmarked) [Compound 2, (5-Chloro-thieno[2,3-d]pyrimidin-4-yl)-[1-(4-trifluoromethoxy-phenyl)-ethyl]-amine] | ≥ 90 | ≥ 60 | ≥ 90 | ≥ 90 | ≥ 75 | ≥ 60 |  |  |  |  |  |  |
| FC(F)(F)Oc1ccc(CCNc2ncnc3scc(Cl)c23)cc1 [Compound 5, (5-Chloro-thieno[2,3-d]pyrimidin-4-yl)-[2-(4-trifluoromethoxy-phenyl)-ethyl]-amine] | ≥ 90 |  | ≥ 90 | ≥ 90 | ≥ 75 | ≥ 60 | ≥ 60 |  |  |  |  |  |
| CC(C)(C)[C@H]1CC[C@@H](Nc2ncnc3scc(Cl)c23)CC1 [Compound 6, cis-(4-tert-Butyl-cyclohexyl)-(5-chloro-thieno[2,3-d]pyrimidin-4-yl)-amine] | ≥ 90 | ≥ 60 | ≥ 90 | ≥ 90 | ≥ 75 | ≥ 60 |  |  |  |  |  |  |
| CC(C)(C)[C@H]1CC[C@@H](Nc2ncnc3scc(Cl)c23)CC1 [drawing 15] |  |  |  |  |  |  |  | 100 | 100 | 100 | 100 | 100 |
| [H][C@H]1CC[C@H](Nc2ncnc3scc(Cl)c23)CC1 [reference compound] |  |  |  |  |  |  |  | 0 | 0 | 0 | 75 | 50 |
| C[C@H](Nc1ncnc2scc(Cl)c12)c1ccccc1 [reference compound] |  |  |  |  |  |  |  | 0 |  | 0 | 100 | 100 |
